# Assay results as given in the supplement of paper PMC9663587.
# What was measured:
# [1] = compound: T1, CN(C)C/C=C/C(=O)Nc1ccc(C(=O)Nc2cccc(Nc3ncc(Cl)c(-c4c[nH]c5ccccc45)n3)c2)cc1 [THZ1]; test: GR value, 72 h; higher = faster growth (1 = untreated, <0 = killing);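 also: breast cancer and non-malignant breast epithelial lines, nine half-log doses, viable cells counted by Hoechst and LIVE/DEAD dye imaging versus time-zero plates and DMSO controls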
# [2] = compound: T2, CCOc1cc2ncc(C#N)c(Nc3ccc(OCc4ccccn4)c(Cl)c3)c2cc1NC(=O)/C=C/CN(C)C [Neratinib/HKI272]; test: as above
# [3] = compound: CN(C)C/C=C/C(=O)Nc1ccc(C(=O)N2CCC[C@@H](Nc3ncc(Cl)c(-c4c[nH]c5ccccc45)n3)C2)cc1 [THZ531]; test: increase in dead-cell fraction, 72 h; higher = more death;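 also: breast cancer cell lines in 384-well plates, stained with Hoechst plus LIVE/DEAD far red dye and imaged, cells above an LDR intensity threshold counted dead, Hoechst-negative corpses included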
# [4] = compound: CN(C)C(=O)c1cc2cnc(Nc3ccc(N4CCNCC4)cn3)nc2n1C1CCCC1 [LEE011/Ribociclib]; test: as above
# [5] = compound: T1, THZ1; test: as above
# [6] = compound: CC(=O)c1c(C)c2cnc(Nc3ccc(N4CCNCC4)cn3)nc2n(C2CCCC2)c1=O; test: as above
# [7] = compound: T2, Neratinib/HKI272; test: as above
# [8] = compound: CCN1CCN(Cc2ccc(Nc3ncc(F)c(-c4cc(F)c5nc(C)n(C(C)C)c5c4)n3)nc2)CC1; test: as above
# [9] = compound: CCc1cnn2c(NCc3ccc[n+]([O-])c3)cc(N3CCCC[C@H]3CCO)nc12; test: as above
# [10] = compound: C=CC(=O)Nc1ccc(C(=O)Nc2[nH]nc3c2CN(C(=O)N[C@H](CN(C)C)c2ccccc2)C3(C)C)cc1 [YKL-5-124]; test: as above
# [11] = compound: CN1CC[C@H](c2c(O)cc(O)c3c(=O)cc(-c4ccccc4Cl)oc23)[C@H](O)C1 [Flavopiridol]; test: as above
# [12] = compound: CC(=O)c1c(C)c2cnc(Nc3ccc(N4CCN(CCOCCOCCOCCNC(=O)COc5cccc6c5C(=O)N(C5CCC(=O)NC5=O)C6=O)CC4)cn3)nc2n(C2CCCC2)c1=O [BSJ-03-123]; test: as above
cell line,measurement,setting,value
MCF10A,GR value,[1]; 0.0001 µM,0.995 GR
same,GR value,[1]; 0.0003162 µM,1.01 GR
same,GR value,[1]; 0.001 µM,0.985 GR
same,GR value,[1]; 0.003162 µM,0.992 GR
same,GR value,[1]; 0.01 µM,0.896 GR
same,GR value,[1]; 0.03162 µM,0.69 GR
same,GR value,[1]; 0.1 µM,0.32 GR
same,GR value,[1]; 0.3162 µM,-0.0551 GR
same,GR value,[1]; 1 µM,-0.563 GR
same,GR value,[2]; 0.0003162 µM,1 GR
same,GR value,[2]; 0.001 µM,1 GR
same,GR value,[2]; 0.003162 µM,1 GR
same,GR value,[2]; 0.01 µM,0.976 GR
same,GR value,[2]; 0.03162 µM,0.723 GR
same,GR value,[2]; 0.1 µM,0.496 GR
same,GR value,[2]; 0.3162 µM,0.304 GR
same,GR value,[2]; 1 µM,0.179 GR
same,GR value,[2]; 3.162 µM,0.099 GR
same,increase in dead-cell fraction,[3]; 0.0001 µM,-0.0006
same,increase in dead-cell fraction,[3]; 0.0003162 µM,-0.0007
same,increase in dead-cell fraction,[3]; 0.001 µM,0.0006
same,increase in dead-cell fraction,[3]; 0.003162 µM,-0.0006
same,increase in dead-cell fraction,[3]; 0.01 µM,-0.0015
same,increase in dead-cell fraction,[3]; 0.03162 µM,0.0007
same,increase in dead-cell fraction,[3]; 0.1 µM,0.0013
same,increase in dead-cell fraction,[3]; 0.3162 µM,0.0057
same,increase in dead-cell fraction,[3]; 1 µM,0.795
same,increase in dead-cell fraction,[4]; 0.001 µM,-0.0014
same,increase in dead-cell fraction,[4]; 0.003162 µM,0.0018
same,increase in dead-cell fraction,[4]; 0.01 µM,-0.0007
same,increase in dead-cell fraction,[4]; 0.03162 µM,-0.0008
same,increase in dead-cell fraction,[4]; 0.1 µM,-0.0006
same,increase in dead-cell fraction,[4]; 0.3162 µM,0.0001
same,increase in dead-cell fraction,[4]; 1 µM,-0.0005
same,increase in dead-cell fraction,[4]; 3.162 µM,-0.0003
same,increase in dead-cell fraction,[4]; 10 µM,0.0032
same,increase in dead-cell fraction,[5]; 0.0001 µM,-0.0014
same,increase in dead-cell fraction,[5]; 0.0003162 µM,0.0002
same,increase in dead-cell fraction,[5]; 0.001 µM,0.0012
same,increase in dead-cell fraction,[5]; 0.003162 µM,-0.0011
same,increase in dead-cell fraction,[5]; 0.01 µM,-0.0007
same,increase in dead-cell fraction,[5]; 0.03162 µM,0.0074
same,increase in dead-cell fraction,[5]; 0.1 µM,0.0416
same,increase in dead-cell fraction,[5]; 0.3162 µM,0.0884
same,increase in dead-cell fraction,[5]; 1 µM,0.642
same,increase in dead-cell fraction,[6]; 0.0003162 µM,0.0006
same,increase in dead-cell fraction,[6]; 0.001 µM,0.0003
same,increase in dead-cell fraction,[6]; 0.003162 µM,-0.0024
same,increase in dead-cell fraction,[6]; 0.01 µM,-0.0041
same,increase in dead-cell fraction,[6]; 0.03162 µM,-0.0059
same,increase in dead-cell fraction,[6]; 0.1 µM,-0.0084
same,increase in dead-cell fraction,[6]; 0.3162 µM,-0.0088
same,increase in dead-cell fraction,[6]; 1 µM,-0.0079
same,increase in dead-cell fraction,[6]; 3.162 µM,-0.005
same,increase in dead-cell fraction,[7]; 0.0003162 µM,-0.0011
same,increase in dead-cell fraction,[7]; 0.001 µM,-0.0018
same,increase in dead-cell fraction,[7]; 0.003162 µM,-0.0008
same,increase in dead-cell fraction,[7]; 0.01 µM,-0.0018
same,increase in dead-cell fraction,[7]; 0.03162 µM,-0.0064
same,increase in dead-cell fraction,[7]; 0.1 µM,-0.004
same,increase in dead-cell fraction,[7]; 0.3162 µM,0.003
same,increase in dead-cell fraction,[7]; 1 µM,0.0444
same,increase in dead-cell fraction,[7]; 3.162 µM,0.164
same,increase in dead-cell fraction,[8]; 0.001 µM,-0.0006
same,increase in dead-cell fraction,[8]; 0.003162 µM,-0.0032
same,increase in dead-cell fraction,[8]; 0.01 µM,-0.0061
same,increase in dead-cell fraction,[8]; 0.03162 µM,-0.0084
same,increase in dead-cell fraction,[8]; 0.1 µM,-0.0079
same,increase in dead-cell fraction,[8]; 0.3162 µM,-0.0081
same,increase in dead-cell fraction,[8]; 1 µM,-0.0035
same,increase in dead-cell fraction,[8]; 3.162 µM,-0.0012
same,increase in dead-cell fraction,[8]; 10 µM,0.0346
same,increase in dead-cell fraction,[9]; 0.0001 µM,0.0013
same,increase in dead-cell fraction,[9]; 0.0003162 µM,0.0005
same,increase in dead-cell fraction,[9]; 0.001 µM,0.0001
same,increase in dead-cell fraction,[9]; 0.003162 µM,0.0053
same,increase in dead-cell fraction,[9]; 0.01 µM,0.0077
same,increase in dead-cell fraction,[9]; 0.03162 µM,0.5
same,increase in dead-cell fraction,[9]; 0.1 µM,0.575
same,increase in dead-cell fraction,[9]; 0.3162 µM,0.559
same,increase in dead-cell fraction,[9]; 1 µM,0.523
same,increase in dead-cell fraction,[10]; 0.001 µM,0.0412
same,increase in dead-cell fraction,[10]; 0.003162 µM,0.118
same,increase in dead-cell fraction,[10]; 0.01 µM,0.138
same,increase in dead-cell fraction,[10]; 0.03162 µM,0.146
same,increase in dead-cell fraction,[10]; 0.1 µM,0.116
same,increase in dead-cell fraction,[10]; 0.3162 µM,0.149
same,increase in dead-cell fraction,[10]; 1 µM,0.159
same,increase in dead-cell fraction,[10]; 3.162 µM,0.118
same,increase in dead-cell fraction,[10]; 10 µM,0.167
same,increase in dead-cell fraction,[11]; 0.0001 µM,0.0016
same,increase in dead-cell fraction,[11]; 0.0003162 µM,0
same,increase in dead-cell fraction,[11]; 0.001 µM,-0.0007
same,increase in dead-cell fraction,[11]; 0.003162 µM,-0.0005
same,increase in dead-cell fraction,[11]; 0.01 µM,0
same,increase in dead-cell fraction,[11]; 0.03162 µM,0.0039
same,increase in dead-cell fraction,[11]; 0.1 µM,0.0255
same,increase in dead-cell fraction,[11]; 0.3162 µM,0.407
same,increase in dead-cell fraction,[11]; 1 µM,0.87
same,increase in dead-cell fraction,[12]; 0.001 µM,0.0008
same,increase in dead-cell fraction,[12]; 0.003162 µM,-0.0013
same,increase in dead-cell fraction,[12]; 0.01 µM,-0.0008
same,increase in dead-cell fraction,[12]; 0.03162 µM,0.0005
same,increase in dead-cell fraction,[12]; 0.1 µM,0.0018
same,increase in dead-cell fraction,[12]; 0.3162 µM,-0.0009
same,increase in dead-cell fraction,[12]; 1 µM,0.0005
same,increase in dead-cell fraction,[12]; 3.162 µM,0.0017
same,increase in dead-cell fraction,[12]; 10 µM,0.153
